The supplement of paper PMC10307832

Assays:
Assay in all cases: relative viability (nuclei count vs DMSO), 5 days (fraction); higher = more cells survive
4EGI-1 + Navitoclax = compound: O=C(O)C(Cc1ccccc1[N+](=O)[O-])=NNc1nc(-c2ccc(Cl)c(Cl)c2)cs1 (mixture of isomers) [4EGI-1] + CC1(C)CCC(c2ccc(Cl)cc2)=C(CN2CCN(c3ccc(C(=O)NS(=O)(=O)c4ccc(N[C@H](CCN5CCOCC5)CSc5ccccc5)c(S(=O)(=O)C(F)(F)F)c4)cc3)CC2)C1 [Navitoclax] (partner 0.5 µM)
In short: (§1)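 One day after seeding in 1536-well plates, lung cancer cell lines were dosed by pin tool. Dosing was either single-drug or a fixed anchor-drug dose plus five library-drug doses (not always all listed) in √10 steps. After 5 days, nuclei were stained in one fix-and-stain step and counted on 4× images, and relative viability is the nuclei count of treated wells over that of vehicle wells, given as the median of duplicate plates.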

XMD8-85 + Vorinostat = compound: CN1CCN(CC1)C2=CC(=C(C=C2)NC3=NC=C4C(=N3)N(C5=CC=CC=C5C(=O)N4C)C)OC [XMD8-85] + O=C(CCCCCCC(=O)Nc1ccccc1)NO [Vorinostat] (partner 1 µM)
In short: as §1

4EGI-1 + Linsitinib = compound: O=C(O)C(Cc1ccccc1[N+](=O)[O-])=NNc1nc(-c2ccc(Cl)c(Cl)c2)cs1 (mixture of isomers) [4EGI-1] + C[C@]1(O)C[C@@H](c2nc(-c3ccc4ccc(-c5ccccc5)nc4c3)c3c(N)nccn32)C1 [Linsitinib] (partner 1 µM)
In short: as §1

XMD8-85 + OSI-027 = compound: CN1CCN(CC1)C2=CC(=C(C=C2)NC3=NC=C4C(=N3)N(C5=CC=CC=C5C(=O)N4C)C)OC [XMD8-85] + COc1cccc2cc(-c3nc([C@H]4CC[C@H](C(=O)O)CC4)n4ncnc(N)c34)[nH]c12 [OSI-027] (partner 0.5 µM)
In short: as §1

Cell Line | relative viability (4EGI-1 + Navitoclax; first compound 0.5 µM) | relative viability (4EGI-1 + Navitoclax; first compound 1.581 µM) | relative viability (4EGI-1 + Navitoclax; first compound 5 µM) | relative viability (4EGI-1 + Navitoclax; first compound 15.81 µM) | relative viability (4EGI-1 + Navitoclax; first compound 50 µM) | relative viability (XMD8-85 + Vorinostat; first compound 0.08 µM) | relative viability (XMD8-85 + Vorinostat; first compound 0.253 µM) | relative viability (XMD8-85 + Vorinostat; first compound 0.8 µM) | relative viability (XMD8-85 + Vorinostat; first compound 2.53 µM) | relative viability (XMD8-85 + Vorinostat; first compound 8 µM) | relative viability (4EGI-1 + Linsitinib; first compound 0.5 µM) | relative viability (4EGI-1 + Linsitinib; first compound 1.581 µM) | relative viability (4EGI-1 + Linsitinib; first compound 5 µM) | relative viability (4EGI-1 + Linsitinib; first compound 15.81 µM) | relative viability (4EGI-1 + Linsitinib; first compound 50 µM) | relative viability (XMD8-85 + OSI-027; first compound 0.08 µM) | relative viability (XMD8-85 + OSI-027; first compound 0.253 µM) | relative viability (XMD8-85 + OSI-027; first compound 0.8 µM) | relative viability (XMD8-85 + OSI-027; first compound 2.53 µM) | relative viability (XMD8-85 + OSI-027; first compound 8 µM)
UMC-11 | 0.392 | 0.345 | 0.367 | 0.301 | 0.216 | 0.45 | 0.367 | 0.441 | 0.296 | 0.22 | 1.06 | 1.18 | 1.02 | 0.987 | 0.399 | 0.457 | 0.461 | 0.521 | 0.436 | 0.371
NCI-H727 | 0.434 | 0.519 | 0.427 | 0.257 | 0.204 | 1.09 | 1.23 | 1.17 | 1.24 | 0.984 | 0.337 | 0.286 | 0.268 | 0.229 | 0.301 | 0.631 | 0.772 | 0.705 | 0.535 | 0.359
NCI-H460 | 1.22 |  | 1.16 | 0.701 | 0.0476 | 0.53 | 0.786 | 0.672 | 0.766 | 0.146 | 0.777 |  | 1.07 | 0.182 | 0.0218 | 0.557 | 0.626 | 0.901 | 0.731 | 0.239
NCI-H1793 | 0.676 | 0.49 | 0.463 | 0.54 | 0.388 |  | 0.665 | 0.63 | 0.916 | 0.497 | 1 | 0.996 | 0.819 | 0.645 | 0.747 | 0.317 | 0.259 | 0.243 | 0.286 | 0.276
LXF-289 | 1.01 | 0.933 | 0.983 | 0.915 | 0.784 | 0.749 | 0.893 | 0.781 | 0.875 | 0.795 | 0.984 | 0.96 | 0.921 | 0.935 | 0.673 | 0.758 | 0.915 | 0.852 | 0.936 | 0.579
NCI-H1944 | 1.19 |  | 1.07 | 0.969 | 0.94 | 0.581 |  | 0.544 | 0.594 | 0.493 | 1.39 |  | 1.21 | 1.1 | 1.13 | 0.391 | 0.442 | 0.461 | 0.514 | 0.297
CAL-12T | 1.1 |  | 1.17 | 1.23 | 0.861 | 0.724 | 0.861 |  | 0.602 | 0.534 | 0.87 | 0.598 | 0.922 | 0.779 | 0.859 | 0.556 | 0.735 | 0.693 | 0.409 | 0.235
NCI-H23 | 1.12 |  | 0.947 | 0.883 | 0.708 | 0.508 | 0.634 | 0.638 | 0.591 | 0.31 | 0.718 |  | 0.704 | 0.629 | 0.496 | 0.589 | 0.692 | 0.614 | 0.654 | 0.409
LK-2 | 1.18 |  | 1.16 | 1.14 | 0.877 | 0.25 | 0.421 | 0.271 | 0.264 | 0.206 | 0.587 | 0.357 | 0.777 | 0.604 | 0.549 | 0.167 | 0.196 | 0.185 | 0.192 | 0.162
NCI-H647 | 1.27 |  | 1.12 | 0.995 | 0.307 | 0.573 | 0.746 | 0.673 | 0.632 | 0.346 | 1.17 | 1.12 | 1.22 | 1.07 | 0.202 | 0.568 | 0.681 | 0.667 | 0.602 | 0.685
COR-L 105 | 0.618 | 0.668 | 1.02 | 0.597 | 0.43 | 0.737 | 0.91 | 0.768 | 0.661 | 0.543 | 1.04 | 0.85 | 0.999 | 0.988 | 0.675 | 0.6 |  | 0.589 | 0.512 | 0.324
A-427 | 0.998 | 0.823 | 0.815 | 0.687 | 0.928 | 0.89 | 0.866 | 0.911 | 0.865 | 0.659 | 1.09 | 0.93 | 1.03 | 1.07 | 0.618 | 0.466 | 0.573 | 0.482 | 0.52 | 0.337
NCI-H1734 | 0.931 | 0.901 | 0.96 | 0.851 | 0.492 | 0.788 | 0.84 | 0.826 | 0.768 | 0.56 | 0.948 | 0.866 | 0.991 | 1 | 0.529 | 0.579 | 0.664 | 0.609 | 0.699 | 0.425
PC-3 [JPC-3] | 0.82 | 0.753 | 0.765 |  | 0.612 | 0.963 | 0.875 | 0.68 | 0.912 | 0.465 | 0.96 | 0.862 | 0.96 |  | 0.889 | 0.769 | 0.754 | 0.698 | 0.814 | 0.71
LCLC-97TM1 | 0.57 |  | 0.408 | 0.374 | 0.267 | 0.786 | 0.823 | 0.915 | 0.784 | 0.259 | 0.161 |  | 0.203 | 0.198 | 0.165 | 0.485 |  | 0.623 | 0.565 | 0.536
HCC-366 | 1.18 | 0.954 | 1.14 | 1.15 | 1.01 | 0.292 | 0.346 | 0.304 | 0.378 | 0.181 | 0.791 | 0.697 | 0.741 | 0.772 | 0.382 | 0.932 | 1.15 | 1.08 | 0.917 | 0.794
COR-L23 | 1.22 | 0.802 | 1.1 | 0.691 | 0.147 | 0.413 | 0.486 | 0.558 | 0.516 | 0.236 | 1.05 | 0.814 | 0.918 | 0.492 | 0.162 | 0.592 |  | 0.91 | 0.733 | 0.597
